GI50 and TGI data for 10 compounds are collected here from PubChem BioAssay (NCI).

Some test systems named below: A498 renal; HCC-2998 colon; IGROV1 ovarian; KM12 colon; LOX IMVI melanoma; MOLT-4 leukemia; NCI-H460 lung; OVCAR-4 ovarian; SK-MEL-2 melanoma; SK-OV-3 ovarian.
Common to all, as to test: NCI tumour cell line growth inhibition, 48 h

The structures appear in SMILES notation. Values joined by “and” are separate entries in the source; they are usually repeats but may differ in a detail not shown here. Identical values can stand only once.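 Where inhibition never reached the appropriate level, the endpoint shown equals the highest concentration tested. Otherwise, values were interpolated linearly from a five-concentration, 48-hour dose response in 96-well plates. GI50: concentration for 50% inhibition of growth. The concentration for full growth arrest is given as TGI.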 Where only a bound is given, the exact number is not on record here.

As for `O=C1/C(=C/c2ccc(Br)cc2)COc2ccc(O)c(O)c21`, the GI50 in the assay with A498 renal is 2.97 µM; in the assay with HCC-2998 colon it was 1.54 µM; in the assay on IGROV1 ovarian, 0.631 µM; in the assay with KM12 colon it was 1.11 µM; with LOX IMVI melanoma, 0.261 µM; with MOLT-4 leukemia, 0.431 µM. The GI50 is 1.68 µM with NCI-H460 lung, 1.31 µM with OVCAR-4 ovarian, 1.69 µM in the assay with SK-MEL-2 melanoma and 2.63 µM in the assay on SK-OV-3 ovarian. For the same compound, the TGI in the assay with A498 renal is 7.75 µM; with HCC-2998 colon, 3.03 µM; with IGROV1 ovarian it was 2.16 µM; in the assay on KM12 colon it was 3.35 µM; with LOX IMVI melanoma it was 0.807 µM; with MOLT-4 leukemia, greater than 100 µM. Also, the TGI in the assay with NCI-H460 lung amounted to 4.06 µM; in the assay on OVCAR-4 ovarian it was 2.59 µM; with SK-MEL-2 melanoma it was 4.53 µM; with SK-OV-3 ovarian, 11.6 µM.

Turning to `CCN(CC)CCCC(CNc1ccnc2cc(Cl)ccc12)c1ccc(Cl)cc1` (stereo unspecified), the GI50 with A498 renal was 1.83 µM and 1.35 µM; with HCC-2998 colon, 1.42 µM and 0.834 µM; in the assay with IGROV1 ovarian, 2.42 µM and 1.6 µM; with KM12 colon, 1.77 µM and 1.54 µM; in the assay with LOX IMVI melanoma, 0.764 µM and 0.353 µM; in the assay with MOLT-4 leukemia, 1.56 µM and 1.24 µM. Also, the GI50 in the assay with NCI-H460 lung is 1.9 µM and 1.74 µM; in the assay on OVCAR-4 ovarian, 1.07 µM and 1.04 µM; in the assay on SK-MEL-2 melanoma it was 2.1 µM and 1.59 µM; in the assay with SK-OV-3 ovarian, 2 µM and 1.82 µM. Further, the TGI in the assay with A498 renal was 3.33 µM and 2.8 µM; in the assay with HCC-2998 colon, 2.96 µM and 2.21 µM; in the assay on IGROV1 ovarian, 7.47 µM and 4.55 µM; in the assay on KM12 colon it was 3.52 µM and 4.33 µM; with LOX IMVI melanoma, 2.13 µM and 1.36 µM; in the assay with MOLT-4 leukemia, 4.91 µM and 4.22 µM. Also, the TGI in the assay with NCI-H460 lung is 3.95 µM and 3.82 µM; in the assay with OVCAR-4 ovarian it was 4.28 µM and 3.36 µM; with SK-MEL-2 melanoma, 4.07 µM and 3.09 µM; in the assay on SK-OV-3 ovarian, 4.04 µM and 3.81 µM.

On to `O=C(CCn1[nH]c(=O)c(Cl)c(Cl)c1=O)NO`, for which the TGI in the assay on A498 renal, in the assay on HCC-2998 colon, in the assay on IGROV1 ovarian, with KM12 colon, with LOX IMVI melanoma and in the assay with MOLT-4 leukemia was greater than 100 µM each time. The TGI in the assay on NCI-H460 lung, in the assay with OVCAR-4 ovarian, in the assay on SK-MEL-2 melanoma and in the assay on SK-OV-3 ovarian was greater than 100 µM each time.

Turning to `Cc1ccc(Cc2c(=O)[nH]nc3ccccc23)cc1`, the TGI with A498 renal, with HCC-2998 colon, in the assay with IGROV1 ovarian, in the assay on KM12 colon, with LOX IMVI melanoma and in the assay with MOLT-4 leukemia was greater than 100 µM each time. Also, the TGI with NCI-H460 lung, in the assay with OVCAR-4 ovarian, in the assay on SK-MEL-2 melanoma and in the assay with SK-OV-3 ovarian was greater than 100 µM each time.

For the compound `O=c1c2sc(=S)n(-c3ccc(F)cc3)c2ncn1Cc1ccc(F)cc1F`, the GI50 in the assay on A498 renal, in the assay on HCC-2998 colon, with IGROV1 ovarian, in the assay with KM12 colon, with LOX IMVI melanoma and in the assay on MOLT-4 leukemia was greater than 100 µM each time. In addition, the GI50 with NCI-H460 lung, with OVCAR-4 ovarian, in the assay on SK-MEL-2 melanoma and in the assay with SK-OV-3 ovarian was greater than 100 µM throughout. The TGI in the assay with A498 renal, in the assay with HCC-2998 colon, with IGROV1 ovarian, with KM12 colon, with LOX IMVI melanoma and in the assay with MOLT-4 leukemia was greater than 100 µM each time. Further, the TGI with NCI-H460 lung, with OVCAR-4 ovarian, in the assay on SK-MEL-2 melanoma and in the assay on SK-OV-3 ovarian was greater than 100 µM throughout.

Regarding `[Cl][Hg][c]1cc(Br)cc(Br)c1`, the GI50 with A498 renal is 2.64 µM; in the assay on HCC-2998 colon, 2.08 µM; in the assay with IGROV1 ovarian, 1.47 µM; in the assay with KM12 colon, 2.78 µM; in the assay with LOX IMVI melanoma, 1.41 µM; in the assay with MOLT-4 leukemia, 1.77 µM. For the same compound, the GI50 in the assay on NCI-H460 lung was 2.05 µM; in the assay with OVCAR-4 ovarian, 2.31 µM; in the assay with SK-MEL-2 melanoma it was 1.97 µM; in the assay with SK-OV-3 ovarian, 4.07 µM. For the same compound, the TGI came to 8.01 µM in the assay on A498 renal; 4.29 µM with HCC-2998 colon; 3.41 µM in the assay with IGROV1 ovarian; 11.8 µM in the assay on KM12 colon; 2.86 µM with LOX IMVI melanoma; 5.41 µM with MOLT-4 leukemia. Moreover, the TGI with NCI-H460 lung was 7.61 µM; in the assay on OVCAR-4 ovarian it was 7.69 µM; in the assay with SK-MEL-2 melanoma, 5.66 µM; with SK-OV-3 ovarian it was 13 µM.

Consider `CCN(CC)CCC(CNc1ccnc2cc(Cl)ccc12)c1ccc(OC)cc1` (stereo unspecified), for which the GI50 in the assay with A498 renal was 3.82 µM and 3.49 µM; in the assay with HCC-2998 colon, 3.5 µM and 2.44 µM; in the assay on IGROV1 ovarian, 10.7 µM and 4.28 µM; with KM12 colon, 12.8 µM and 5.62 µM; with LOX IMVI melanoma, 1.88 µM and 1.6 µM; in the assay with MOLT-4 leukemia, 6.77 µM and 4.68 µM. The GI50 is 11.1 µM and 4.91 µM in the assay with NCI-H460 lung; 3.7 µM and 4.66 µM in the assay on OVCAR-4 ovarian; 15.4 µM and 2.02 µM with SK-MEL-2 melanoma; 13.1 µM and 14.1 µM with SK-OV-3 ovarian. For the same compound, the TGI was 13.4 µM and 14.1 µM in the assay on A498 renal; 16.2 µM and 6.32 µM in the assay on HCC-2998 colon; 39.8 µM and 24.2 µM in the assay with IGROV1 ovarian; 28.6 µM and 21.5 µM in the assay on KM12 colon; 4.79 µM and 4.15 µM with LOX IMVI melanoma; 41.4 µM and 50.9 µM with MOLT-4 leukemia. Also, the TGI was 25.6 µM and 24.7 µM in the assay with NCI-H460 lung; 20.3 µM and 28.1 µM in the assay on OVCAR-4 ovarian; 33.1 µM and 4.07 µM in the assay on SK-MEL-2 melanoma; 33.4 µM and 46 µM with SK-OV-3 ovarian.

As to `CCCCC(C(=O)C(=O)NC1C2CC3CC(C2)CC1C3)C(=O)C(C)C` (stereo unspecified), the TGI in the assay with A498 renal, in the assay on HCC-2998 colon, with IGROV1 ovarian, with KM12 colon, with LOX IMVI melanoma and in the assay on MOLT-4 leukemia was greater than 100 µM each time. The TGI in the assay on NCI-H460 lung, in the assay with OVCAR-4 ovarian, in the assay with SK-MEL-2 melanoma and in the assay on SK-OV-3 ovarian was greater than 100 µM each time.

With `COc1ccc2c(c1)CCCC(Br)C2=O` (stereo unspecified), the TGI was 36.4 µM in the assay on A498 renal; greater than 100 µM in the assay on HCC-2998 colon; 4.28 µM in the assay with IGROV1 ovarian; 12.8 µM with KM12 colon; 3.04 µM in the assay with LOX IMVI melanoma; greater than 48.5 µM with MOLT-4 leukemia. Moreover, the TGI in the assay on NCI-H460 lung turned out to be 10.5 µM; with OVCAR-4 ovarian it was 20.5 µM; in the assay with SK-MEL-2 melanoma, 4.36 µM; in the assay with SK-OV-3 ovarian it was 14.3 µM.

Regarding `Cc1nc2c(-c3cnc(N)nc3)nc(N3CCOCC3)nc2n1C(C)C`, the TGI in the assay with A498 renal is 0.156 µM and 0.0587 µM; with HCC-2998 colon, 4.27 µM and 24.8 µM; with IGROV1 ovarian, 0.262 µM and 0.286 µM; in the assay with KM12 colon it was > 10 µM and 21.8 µM; with LOX IMVI melanoma, 1.56 µM and 6.03 µM; with MOLT-4 leukemia, greater than 59.3 µM. Besides, the TGI was greater than 100 µM in the assay with NCI-H460 lung; 1.99 µM and 0.786 µM in the assay with OVCAR-4 ovarian; 0.733 µM and 0.688 µM in the assay on SK-MEL-2 melanoma; 0.57 µM and 0.226 µM in the assay with SK-OV-3 ovarian. Also, the GI50 in the assay with MOLT-4 leukemia is 0.297 µM and 0.197 µM.
